Test results taken from patent US11319303B2 (WIGEN BIOMEDICINE TECHNOLOGY (SHANGHAI) CO., LTD., priority 2017, dated 2022).
Read-outs that look alike come from different tables or passages of the source.

Target: LC3B (Homo sapiens, UniProt Q9GZQ8)
Assay: Fluorescence Polarization (FP) Assay: displacement of FITC-labeled peptide from GST-LC3B
Format: binding
Procedure: The compounds of the present invention for regulating the autophagy-related protein LC3B were tested by Fluorescence Polarization (FP) Assay.
Fluorescence Polarization (FP) Assay Test

[1] = Fluorescence Polarization assay, GST-LC3B 180 nM, FITC-labeled peptide 18 nM, 25° C., read-out: IC50

SMILES | IC50 [1] [µM] | IC50 [µM]
O=C1Nc2ccc(-c3ccccc3)cc2C(=O)/C1=C/NCCN1CCN(CCO)CC1 [Compound 328, 3-(((2-(4-(2-hydroxyethyl)piperazin-1-yl)ethyl)amino)methylene)-6-phenylquinoline-2,4(1H,3H)-dione] | 3 to 15 | 
Cc1ccc(C2CC(=O)C(=CNCCN3CCN(CCO)CC3)C(=O)C2)c(Br)c1 (centres unmarked) [Compound 329, 5-(2-bromo-4-methylphenyl)-2-(((2-(4-(2-hydroxyethyl)piperazin-1-yl)ethyl)amino)methylene) cyclohexane-1,3-dione] | < 3 | 
CCOC(=O)C1C(=O)/C(=C\NCCN2CCN(CCO)CC2)C(=O)CC1c1cccc2[nH]ccc12 (centres unmarked) [Compound 330, ethyl 3-(((2-(4-(2-hydroxyethyl)piperazin-1-yl)ethyl)amino)methylene)-6-(1H-indol-4-yl)-2,4-dioxocyclohexane-1-carboxylate] | 3 to 15 | 
O=C1Nc2c(ccc3ccccc23)C(=O)/C1=C\NCCN1CCN(CCO)CC1 [Compound 331, 3-(((2-(4-(2-hydroxyethyl)piperazin-1-yl)ethyl)amino)methylene) benzo[h]quinoline-2,4(1H,3H)-dione] | < 3 | 
CN(C)c1ccc(Br)c(C2CC(=O)C(=CNCCN3CCN(CCO)CC3)C(=O)C2)c1 (centres unmarked) [Compound 332, 5-(2-bromo-5-(dimethylamino)phenyl)-2-(((2-(4-(2-hydroxyethyl)piperazin-1-yl)ethyl)amino)methylene) cyclohexane-1,3-dione] | < 3 | 
NC(=O)C1C(=O)C(=CNCCN2CCN(CCO)CC2)C(=O)CC1c1ccccc1 (centres unmarked) [Compound 333, 3-(((2-(4-(2-hydroxyethyl)piperazin-1-yl)ethyl)amino)methylene)-2,4-dioxo-6-phenylcyclohexane-1-carboxamide] | 15 to 100 | 
CC(C)(C)OC(=O)C1C(=O)C(=CNCCN2CCN(CCO)CC2)C(=O)CC1c1ccccc1 (centres unmarked) [Compound 334, tert-butyl 3-(((2-(4-(2-hydroxyethyl)piperazin-1-yl)ethyl)amino)methylene)-2,4-dioxo-6-phenylcyclohexane-1-carboxylate] | 3 to 15 | 
CCOC(=O)C1C(=O)C(=CNCCN2CCN(CCO)CC2)C(=O)CC1c1ccccc1 (centres unmarked) [Compound 335, ethyl 3-(((2-(4-(2-hydroxyethyl)piperazin-1-yl)ethyl)amino)methylene)-2,4-dioxo-6-phenylcyclohexane-1-carboxylate] | 3 to 15 | 
CC1(C#N)C(=O)C(=CNCCN2CCN(CCO)CC2)C(=O)CC1c1ccccc1 (centres unmarked) [Compound 336, 3-(((2-(4-(2-hydroxyethyl)piperazin-1-yl)ethyl)amino)methylene)-1-methyl-2,4-dioxo-6-phenylcyclohexane-1-carbonitrile] | 3 to 15 | 
COc1cccc(C2CC(=O)C(=CNCCN(C)C)C(=O)C2)c1 (centres unmarked) [Compound 337, 2-(((2-(dimethylamino)ethyl)amino)methylene)-5-(3-methoxyphenyl) cyclohexane-1,3-dione] | < 3 | 
CN(C)CCNC=C1C(=O)CC(c2cccnc2Br)CC1=O (centres unmarked) [Compound 338, 5-(2-bromopyridin-3-yl)-2-(((2-(dimethylamino)ethyl)amino)methylene) cyclohexane-1,3-dione] |  | < 3
CN(C)CCNC=C1C(=O)CC(c2ccc([N+](=O)[O-])cc2)CC1=O (centres unmarked) [Compound 340, 2-(((2-(dimethylamino)ethyl)amino)methylene)-5-(4-nitrophenyl) cyclohexane-1,3-dione] | < 3 | 
CN(C)CCNC=C1C(=O)CC(C(=O)Nc2ccccc2)CC1=O (centres unmarked) [Compound 343, 4-(((2-(dimethylamino)ethyl)amino)methylene)-3,5-dioxo-N-phenylcyclohexane-1-carboxamide] | 3 to 15 | 
CN(C)CCNC=C1C(=O)CC(c2ccccc2N2CCOCC2)CC1=O (centres unmarked) [Compound 344] | 3 to 15 | 
CC(=O)Nc1ccccc1C1CC(=O)C(=CNCCN(C)C)C(=O)C1 (centres unmarked) [Compound 345, N-(2-(4-(((2-(dimethylamino)ethyl)amino)methylene)-3,5-dioxocyclohexyl)phenyl) acetamide] | 3 to 15 | 
CN(C)CCNC=C1C(=O)CC(c2cc(F)ccc2Br)CC1=O (centres unmarked) [Compound 349, 5-(2-bromo-5-fluorophenyl)-2-(((2-(dimethylamino)ethyl)amino)methylene) cyclohexane-1,3-dione] | < 3 | 
CN(C)CCNC=C1C(=O)CC(c2cccc(F)c2Br)CC1=O (centres unmarked) [Compound 350, 5-(2-bromo-3-fluorophenyl)-2-(((2-(dimethylamino)ethyl)amino)methylene) cyclohexane-1,3-dione] |  | < 3
CN(C)CCNC=C1C(=O)CC(c2cc(F)ccc2Cl)CC1=O (centres unmarked) [Compound 351, 5-(2-chloro-5-fluorophenyl)-2-(((2-(dimethylamino)ethyl)amino)methylene) cyclohexane-1,3-dione] | < 3 | 
O=C1CCCCC(=O)C1=CNCCN1CCN(CCO)CC1 [Compound 352, 2-(((2-(4-(2-hydroxyethyl)piperazin-1-yl)ethyl)amino)methylene) cycloheptane-1,3-dione] | 100 to 1000 | 

SMILES | IC50 [1] [µM] | IC50 [µM]
O=C1CC(c2cccc3[nH]cc(-c4ccccc4)c23)CC(=O)C1=CNCCN1CCN(CCO)CC1 (centres unmarked) [Compound 353, 2-(((2-(4-(2-hydroxyethyl)piperazin-1-yl)ethyl)amino)methylene)-5-(3-phenyl-1H-indol-4-yl)cyclohexane-1,3-dione] | < 3 | 
O=C1Nc2cc(C(F)(F)F)ccc2C(=O)/C1=C\NCCN1CCN(CCO)CC1 [Compound 354, 3-(((2-(4-(2-hydroxyethyl)piperazin-1-yl)ethyl)amino)methylene)-7-(trifluoromethyl) quinoline-2,4(1H,3H)-dione] | < 3 | 
O=C1CC(c2ccccc2)CC(=O)C1=CNc1cccc2c1CNC2=O (centres unmarked) [Compound 355, 2-(((1-oxoisoindolin-4-yl)amino)methylene)-5-phenylcyclohexane-1,3-dione] | < 3 | 
CN(C)CCNC=C1C(=O)CC(c2c(Cl)cccc2C(F)(F)F)CC1=O (centres unmarked) [Compound 358, 5-(2-chloro-6-(trifluoromethyl)phenyl)-2-(((2-(dimethylamino)ethyl)amino)methylene) cyclohexane-1,3-dione] | < 3 | 
CN(C)CCNC=C1C(=O)CC(C(=O)NCc2ccccc2)CC1=O (centres unmarked) [Compound 359, N-benzyl-4-(((2-(dimethylamino)ethyl)amino)methylene)-3,5-dioxocyclohexane-1-carboxamide] | 15 to 100 | 
CN(C)CCNC=C1C(=O)CC(C(=O)Nc2ccc(Br)cc2)CC1=O (centres unmarked) [Compound 360, N-(4-bromophenyl)-4-(((2-(dimethylamino)ethyl)amino)methylene)-3,5-dioxocyclohexane-1-carboxamide] | 3 to 15 | 
CN(C)CCNC=C1C(=O)CC(c2c(F)cccc2Cl)CC1=O (centres unmarked) [Compound 361, 5-(2-chloro-6-fluorophenyl)-2-(((2-(dimethylamino)ethyl)amino)methylene) cyclohexane-1,3-dione] | < 3 | 
CN(C)CCNC=C1C(=O)CC(c2cc(C(F)(F)F)ccc2Br)CC1=O (centres unmarked) [Compound 362, 5-(2-bromo-5-(trifluoromethyl)phenyl)-2-(((2-(dimethylamino)ethyl)amino)methylene) cyclohexane-1,3-dione] | < 3 | 
CN(C)CCNC=C1C(=O)CC(C(=O)Nc2ccc(Cl)cc2)CC1=O (centres unmarked) [Compound 363, N-(4-chlorophenyl)-4-(((2-(dimethylamino)ethyl)amino)methylene)-3,5-dioxocyclohexane-1-carboxamide] | 3 to 15 | 
CN(C)CCNC=C1C(=O)CC(c2cc(Cl)cc(Cl)c2Cl)CC1=O (centres unmarked) [Compound 364, 2-(((2-(dimethylamino)ethyl)amino)methylene)-5-(2,3,5-trichlorophenyl) cyclohexane-1,3-dione] | < 3 | 
CN(C)CCNC=C1C(=O)CC(c2ccc(Br)s2)CC1=O (centres unmarked) [Compound 366, 5-(5-bromothiophen-2-yl)-2-(((2-(dimethylamino)ethyl)amino)methylene) cyclohexane-1,3-dione] | < 3 | 
CN(C)CCNC=C1C(=O)CC(c2ccc(-c3ccccc3)s2)CC1=O (centres unmarked) [Compound 367, 2-(((2-(dimethylamino)ethyl)amino)methylene)-5-(5-phenylthiophen-2-yl)cyclohexane-1,3-dione] | < 3 | 
CN(C)CCNC=C1C(=O)CC(c2ccc(F)cc2Cl)CC1=O (centres unmarked) [Compound 370, 5-(2-chloro-4-fluorophenyl)-2-(((2-(dimethylamino)ethyl)amino)methylene) cyclohexane-1,3-dione] | < 3 | 
CN(C)CCNC=C1C(=O)CC(c2cscc2-c2ccccc2)CC1=O (centres unmarked) [Compound 371, 2-(((2-(dimethylamino)ethyl)amino)methylene)-5-(4-phenylthiophen-3-yl)cyclohexane-1,3-dione] | < 3 | 
Cc1ccc(NC(=O)CN2CCN(CCNC=C3C(=O)CC(c4ccccc4Br)CC3=O)CC2)cc1 (centres unmarked) [Compound 372, 2-(4-(2-(((4-(2-bromophenyl)-2,6-dioxocyclo-hexylidene)methyl)amino)ethyl)piperazin-1-yl)-N-(p-tolyl) acetainide] | < 3 | 
CNc1cccc(C2CC(=O)C(=CNCCN3CCN(CCO)CC3)C(=O)C2)c1Br (centres unmarked) [Compound 374, 5-(2-bromo-3-(methylamino)phenyl)-2-(((2-(4-(2-hydroxyethyl)piperazin-1-yl)ethyl)amino)methylene) cyclohexane-1,3-dione] | < 3 | 
O=C1CC(c2c[nH]c3cccc(Br)c23)CC(=O)C1=CNCCN1CCN(CCO)CC1 (centres unmarked) [Compound 375, 5-(4-bromo-1H-indol-3-yl)-2-(((2-(4-(2-hydroxyethyl)piperazin-1-yl)ethyl)amino)methylene) cyclohexane-1,3-dione] | < 3 | 
CN(C)CCNC=C1C(=O)CC(c2cc(C(F)(F)F)ccc2F)CC1=O (centres unmarked) [Compound 376, 2-(((2-(dimethylamino)ethyl)amino)methylene)-5-(2-fluoro-5-(trifluoromethyl)phenyl) cyclohexane-1,3-dione] | < 3 | 
CN(C)CCNC=C1C(=O)CC(c2c(C(F)(F)F)ccc(Cl)c2Cl)CC1=O (centres unmarked) [Compound 377, 5-(2,3-dichloro-6-(trifluoromethyl)phenyl)-2-(((2-(dimethylamino)ethyl)amino)methylene) cyclohexane-1,3-dione] | < 3 | 
